Results from US8128913B1, “Sunscreen composition with enhanced UV-A absorber stability and methods” (Skinvisible Pharmaceuticals, Inc., priority 2007, dated 2012).

Assays:
[1] = photostability of sunscreen film on polyethylene under UV light at 365 nm, extraction and C18 chromatography; type: physicochemical; details: Example 1 composition (no tricontanyl polymer), between 4 and 8 hours of UV exposure, 2340 Watts/m^2
Experimental: To test the photostability of the sunscreen composition, 200-250 μl of the sunscreen composition was spread evenly over a 25 cm^2 piece of polyethylene film. The amount of sunscreen preparation was determined by weight, and the polyethylene film was dried for 1 hour at 35° C. After drying the film was exposed to […] (2340 Watts/m^2) of UV light at 365 nm for 0, 2, 4, 6 and 8 hours. Following light exposure, sunscreen was extracted with ethanol containing 1% acetic acid. Extracts were separated and quantitated with a C18 column with a methanol:water linear gradient.
The composition contains 3 wt. % avobenzone, 6 wt. % octocrylene, and 4 wt. % oxybenzophenone as sunscreen agents. Photo stability test of the composition was carried out as described in Example 1.

[2] = in vivo; cited from earlier work

loss of sunscreen agent with UV exposure [1] [%] | Molecule | dermal toxicity [2]
~50 | COc1ccc(C(=O)CC(=O)c2ccc(C(C)(C)C)cc2)cc1 [avobenzone] | –
– | Poly(vinylpyrrolidone/1-hexadecene) [PVPH] | no demonstrable dermal toxicity
– | Poly(vinylpyrrolidone/eicosene) [PVPE] | no demonstrable dermal toxicity
